# d = 2'-deoxy (DNA)
# Assay: Serum stability assay (50% serum, 37° C., gel electrophoresis)
# Format: in vitro ADME, bovine
# Conditions: 50% serum media at 37° C., 0-24 h; HMplex N/P=4
# Description: In vitro cytotoxicity studies of HMplexes were performed against normal cells (MRC-5 and NIH-3T3) and cancer cells (MDA-MB-231) using the colorimetric MTT assay. Cells were treated with HMplexes at various concentrations for 4 h and then incubated in a serum-free medium for another 44 h after washing twice with cold PBS (pH 7.4). After washing with PBS, the cells were treated with MTT reagents and the absorbance at 540 nm was measured with a microplate reader (Spectra Max 340, Molecular Devices, Sunnyvale, Calif., USA). The complex stability of HMplexes was evaluated by a heparin polyanion competition assay and a serum stability assay. For the heparin polyanion competition assay, HMplexes containing 1 μg siRNA were incubated with varying amounts of heparin (0-200 μg) for 30 min at room temperature and then subjected to 2% agarose gel electrophoresis. The decomplexed siRNA was detected with SYBR Gold staining. For serum stability studies, HMplexes or naked siRNA were incubated in 50% FBS/PBS (pH 7.4) at 37° C. for predetermined time periods (0-24 h). Aliquots from each sample were analyzed by 2% agarose gel electrophoresis and visualized with SYBR Gold.
substance,measurement,value
"free siRNA: Custom Bcl-2 siRNA (sense Seq ID No. 1-dTdT; antisense Seq ID No. 2-dTdT), uncomplexed (sense GUACAUCCAUUAUAAGCUG; antisense CAGCUUAUAAUGGAUGUAC; RNA, 3' dTdT, backbone not given here)",degradation of siRNA in serum,completely disappeared at 24 h
